Each block holds one substance with its values, some of them ahead of it. Where no end group is shown, it is not given here.
Legend:
Igfbp2−/− COBs and BMSCs = test: In vitro osteoblastogenesis of calvarial osteoblasts and bone marrow stromal cells (ALP, Alizarin Red staining); assay type: cell-based, mouse; details: 2 μg/ml, osteogenic media
Experimental: FIG. 1. The heparin-binding domain of IGFBP2 enhances osteoblastogenesis in vitro. a. Von Kossa staining was performed using tibia from 8 weeks old Igfbp2^+/+ and Igfbp2^−/− male mouse. b. Calvarial osteoblasts (COBs) were harvested from day 7 old male Igfbp2^+/+ and Igfbp2^−/− male mouse, and treated with osteogenic media in the presence of 2.5% FCS. At day 7, alkaline phosphatase (ALP) staining was performed. c and d. COBs and Bone marrow stromal cells (BMSCs) from Igfbp2^−/− mouse were treated with osteogenic media with pegylated heparin-binding domain peptide (PEG-HBD) in the presence of 10% FCS. ALP staining (day 7) and Alizarin Red staining (day 14) were performed (c). RNA was isolated at day 14 from BMSCs and expression of ALP, osteocalcin (OC) and Runx2 was analyzed by real-time PCR. Figures shown represent at least 3 independent experiments (n=3). Statistical difference was analyzed by student's t test. *; p<0.05.
FIG. 7. […] Igfbp2^−/− calvarial osteoblasts (COBs) were cultured with osteogenic media with PBS, control peptide (2 μg/ml) or heparin binding domain peptide (HBD-peptide) (2 μg/ml). Osteoblastogenesis was evaluated by Alizarin Red staining.
Neonatal calvarial osteoblasts were collected from 7-10 day old mice as previously described^53. Briefly, calvariae were digested 5 times with collagenase P and Trypsin. Cells released from digests 2 through 5 were collected as primary calvarial osteoblasts, and maintained in DMEM supplemented with 10% FCS and non-essential amino acids. Osteoblastogenesis of primary calvarial osteoblasts was carried out by treating cells with 4 mM β-glycerophosphate and 50 μg/ml ascorbic acid in αMEM. Bone marrow stromal cells (BMSCs) were harvested from femurs and tibias of 8 weeks old mice as described previously^10. Osteoblastogenesis of BMSCs was induced by the treatment with osteogenic media consisting of αMEM containing 10% FCS, 8 mM β-glycerophosphate, and 50 μg/ml ascorbic acid.

metacarpals = test: Metacarpal culture ex vivo (calcein incorporated area, length, width); assay type: cell-based, mouse; details: 10 days, IGFBP2 200 ng/ml, peptides 2 μg/ml, vs PBS; for calcein incorporated area of metacarpals: IGF-1 20 ng/ml
Experimental: FIG. 2. The heparin binding domain of IGFBP2 enhances periosteal expansion of metacarpals ex vivo. Metacarpals were collected from day 1 male mouse, and treated with osteogenic media with IGFBP2 (200 ng/ml) or the heparin-binding domain peptide (HBD-peptide) (2 μg/ml) in the presence or absence of IGF-1 (20 ng/ml) for 10 days. Bones were labeled with calcein (500 ng/ml) and calcein incorporated area was visualized (a) and longitudinal length of calcein incorporated area was quantified (b). Alcian blue and Von Kossa double staining was performed (c) and length and width of metacarpals were quantified (d). Statistical difference was analyzed by ANOVA followed by Bonferroni post-hoc test. Figures shown represent at least 3 independent experiments. Values are expressed as the mean±SEM (n=3-4). ^a; <0.05 vs PBS, ^b; <0.01 vs PBS, ^c; <0.001 vs PBS, ^d; <0.01 vs HBD, ^e; <0.05 vs IGF-I, ^f; <0.05 vs HBD.
Metacarpals were isolated from Igfbp2^−/− mice at 1-day old and incubated in DMEM containing 0.5% BSA, 50 μg/ml ascorbic acid and 1 mM β-glycerol phosphate for 10 days^54. Stimulants were added to culture media from day 1. At day 10, metacarpals were incubated in media containing calcein (500 ng/ml) for 2 hours for staining of calcium deposition, and images were obtained. Then, bones were fixed with 4% PFA, embedded in paraffin, and processed for Alcian blue and von Kossa double staining.

PTEN = test: Western blot analysis of PTEN expression; assay type: cell-based, mouse; details: primary calvarial osteoblasts, overnight treatment
Experimental: FIG. 5. The heparin-binding domain of IGFBP2 suppresses PTEN expression. a and b, Igfbp2^−/− calvarial osteoblasts (COBs) were isolated, and treated with PBS, IGFBP-2 or pegylated heparin-binding domain peptide (PEG-HBD) in MEMα containing 0.1% BSA overnight. Whole cell lysate was collected and expression of PTEN and α-actin was analyzed by Western blot analysis. Expression levels of PTEN were quantified by normalizing to the expression levels of α-actin. c and d. COBs pre-incubated with PBS, IGFBP-2 or PEG-HBD overnight were treated with IGF-I (100 ng/ml) for 15 minutes. Whole cell lysate was collected and expression of pSer473-Akt and Akt was analyzed by Western blot analysis. Expression levels of pSer473-Akt were quantified by normalizing to the expression levels of Akt. Figures shown represent at least 3 independent experiments. Values are expressed as the mean±SEM (n=3-4). Statistical difference was analyzed by Student's t-test. *; <0.001, **; <0.01, ^†; <0.05.
FIG. 9. […] Igfbp2^+/+ calvarial osteoblasts were treated with PBS, control peptide, or heparin-binding domain peptide (HBD-peptide) overnight, and whole cell lysate was collected. PTEN expression was analyzed using western blot analysis (a), and quantitative analysis was performed (b). Values were expressed as the mean±SEM (n=3). Statistical significance was analyzed by ANOVA followed by Bonferroni post-hoc test. ^a; p<0.01 vs. PBS, ^b; p<0.01 vs. control peptide.
To prepare whole cell lysates, cells were solubilized in RIPA buffer^55. For cytosolic fraction, cells were solubilized with hypotonic buffer containing protease and phosphatase inhibitors (10 mM Tris, 0.2 mM MgCl2, pH 7.4) and kept on ice for 10 min. Cell lysates were mixed with sucrose buffer (final concentration; 25 mM Sucrose, 0.1 mM EDTA) and centrifuged at 20,000×g for 1 hour. Supernatant was used as cytosolic fraction. To prepare the membrane fraction, cells were solubilized with PBS containing protease and phosphatase inhibitors. The lysates were frozen at −80° C. for 1 h and thawed at room temperature. After three cycles, they were centrifuged at 13,000×g for 25 min. The pellet was suspended with membrane protein isolation buffer (20 mM Tris-HCl; 150 mM NaCl; 1 mM EDTA; 1 mM EGTA; and 1% Triton X-100, pH 7.5) containing protease and phosphatase inhibitors. Protein concentration was assessed by BCA protein assay kit (Thermo Scientific) and equal amounts of sample were separated by SDS-PAGE and transferred electrophoretically to nitrocellulose membranes. Membranes were blocked in 5% BSA in Tris-buffered saline. […]

β-catenin = test: Western blot analysis of β-catenin (cytosolic accumulation, pSer552); assay type: cell-based, mouse
Experimental: FIG. 6. The heparin-binding domain of IGFBP-2 stimulates cytosolic accumulation and Ser552 phosphorylation of β-catenin by IGF-I. a, MC3T3-E1 cells were serum-starved over-night and treated with IGF-I at the indicated concentration for 6 hours. Expression of β-catenin and α-actin was analyzed by Western blot analysis with membrane and cytosolic fraction. b, Igfbp2^−/− calvarial osteoblasts (COBs) were serum-starved over-night with PBS or pegylated heparin-binding domain peptide (PEG-HBD) and then treated with IGF-I (100 ng/ml) for 6 hours. Expression of β-catenin was analyzed by Western blot analysis with cytosolic fraction and quantified by normalizing to α-actin (n=3). c, MC3T3-E1 cells were serum-starved over-night and treated with IGF-I (100 ng/ml) for 15 min. Expression of pSer552-β-catenin, β-catenin, pSer473-Akt, Akt and α-actin was analyzed by Western blot analysis with whole cell lysates. d, Igfbp2^−/− COBs were serum-starved over-night with PBS or PEG-HBD and then treated with IGF-I (100 ng/ml) for 15 min. Expression of pSer552-β-catenin was analyzed by Western blot analysis with whole cell lysates and quantified by normalizing to β-catenin (n=3). Figures shown represent at least 3 independent experiments. Values are expressed as the mean±SEM. Statistical difference was analyzed by Student's t-test. *; <0.001, **; <0.01, ^†; <0.05. […]

adherent macrophages = test: Osteoclast differentiation, tartrate resistant acid phosphatase staining; assay type: cell-based, mouse; details: osteoclast differentiation
Excerpt: The method for osteoclast differentiation is as follows: Balb/c mice in which the IGFBP-2 gene had been deleted (see V. DeMambro et al, Endocrinology, 149(5): 2051-2061 (2007)) were anesthetized and sacrificed using cervical dislocation. The femurs from each mouse were dissected free of soft tissue and the bone marrow aspirated by needle puncture. Cells were removed sterile and resuspended in DMEM with 10% fetal calf serum. The cells were centrifuged at 700×g and the cell pellet resuspended in medium and plated in 24 well plates at a concentration of 5000 cells/cm^2. The plates that are used are low adherence plates that have no additives to facilitate cell adherence. Under these conditions macrophages will adhere while other cells will not. The media is supplemented with mCSF 20 ng/ml. After 3 days the cells are removed from the plate and the adherent macrophages are exposed to fresh media containing 10% FBS and mCSF. This is repeated again after 3 days and then after an additional 3 days cells are trypsinized and replated in fresh plates at 6×10^4 cells/cm. At this time RANK ligand, 50 ng/ml, is added, although in some experiments concentrations as low as 10 ng/ml were utilized. Medium is changed at 3 and 6 days and on day 7 cells are stained for tartrate resistant acid phosphatase, a marker of osteoclast differentiation. IGFBP-2 was added at concentrations between 50 ng/ml and 500 mcg/ml. The peptide was added at 20 or 200 ng/ml.
For tartrate resistant acid phosphatase staining, a 1% solution is prepared and incubated with the cells for 30 min at room temperature. Cultures are then washed and cell number determined by manual counting.

[1] = test system: cells derived from bone marrow aspirates or calvaria; test: Osteoblast differentiation, alkaline phosphatase and von kossa stain; assay type: cell-based, mouse
Experimental: For measurement of osteoblast differentiation, the cells are also derived from the same bone marrow aspirates. However in some experiments they were derived from calvaria obtained from newborn animals. Cells are plated in 6 well plates at […] in alpha MEM with 10% fetal bovine serum. Media was changed on day 1 and 3. At day 3 the cells received differentiation medium, which is alphaMEM containing 10% fetal calf serum, 8 mM glycerol phosphate and 50 ug/ml ascorbic acid. Media subsequently is changed every 2 days until termination of the experiment, generally at 18 days. In some experiments fetal calf serum concentration was lowered to either 5% or 2%. IGFBP-2 200 ng/ml was added to some cultures or the IGFBP-2 peptide at concentrations between 2 ng/ml and 2 mcg/ml. To determine osteoblast differentiation, the cells were fixed with 4% paraformaldehyde and then stained for alkaline phosphatase. The cells were then counterstained with von kossa stain to detect mineralization.

IGFBP-2−/− mice = test: In vivo rescue of the bone phenotype in IGFBP-2−/− mice (micro CT); set-up: species or system mouse
Experimental: IGFBP-2−/− mice have reduced bone mineral density, reduced cortical and trabecular thickness and reduced bone turnover, both formation and resorption. To determine if the 13 amino acid peptide was active systemically, a pegylated preparation was prepared in order to extend halflife. This preparation was then injected into the mice. Mice between the ages of 16 and 20 weeks were utilized. These mice are known to have a major bone phenotype. The peptide was injected at a dose of 50 mcg of peptide plus conjugate, that is the total molecular weight of PEG plus the peptide, which is approximately 23,000 molecular weight was injected intraperitoneally five days per week for three weeks. Six mice were injected in each group. The major measure of bone density is the bone volume over total volume as calculated by micro CT analysis. This measures the amount of total bone within a given space. Control animals receive PBS injections.

[2] = 50 mcg i.p. five days per week for three weeks

Substance: AALSLEEPAALAP (Synthetic control peptide) [control peptide for HBD-peptide, reference compound]
mineralization of Igfbp2−/− COBs (Alizarin Red) compared to PBS (Igfbp2−/− COBs and BMSCs): did not enhance mineralization | calcein incorporated area of metacarpals (metacarpals): no effect | width (and length) of metacarpals (metacarpals): comparable to the metacarpals treated with PBS | PTEN expression (PTEN): no effect on PTEN expression

Substance: IGF-I: insulin-like growth factor-I
calcein incorporated area of metacarpals (metacarpals): stimulated expansion of calcein incorporated area | Ser552 phosphorylation of β-catenin (β-catenin; IGF-I 100 ng/ml 15 min, MC3T3-E1 cells (IGF-I alone) or Igfbp2−/− COBs pre-treated with PEG-HBD): stimulated β-catenin phosphorylation on Ser552 | cytosolic accumulation of β-catenin (β-catenin; IGF-I 6 hours, MC3T3-E1 cells (IGF-I alone) or Igfbp2−/− COBs pre-treated with PEG-HBD vs PBS): enhanced cytosolic accumulation of β-catenin

Substance: RKGFYKRKQCKPSRGKRK (IGFBP-5 heparin binding domain-containing peptide sequence) [HBD-BP5, reference compound]
mineralization of Igfbp2−/− COBs (Alizarin Red) compared to PBS (Igfbp2−/− COBs and BMSCs): did not show any enhancement of mineralization | calcein incorporated area of metacarpals (metacarpals): did not have any effect | width (and length) of metacarpals (metacarpals): did not have any effect

biologic activity compared to the nonpegylated peptide (adherent macrophages): equal biologic activity
Substance: pegylated 13 amino acid peptide: peptide of SEQ ID NO: 1 N-terminally pegylated with methoxyPEG propinaldehyde molecular weight 20 kDa, 1 PEG per peptide ({methoxyPEG 20 kDa}-KHHLGLEEPKKLR)
biologic activity compared to the nonpegylated peptide [1]: equal biologic activity | PTEN in bones (biochemical analysis) (IGFBP-2−/− mice; [2]): downregulated | cortical thickness (IGFBP-2−/− mice; [2]): substantially increased | rescue of bone phenotype relative to normal (IGFBP-2−/− mice; [2]): ≤ 70% | BV/TV (bone volume over total volume) (IGFBP-2−/− mice; 50 mcg peptide plus conjugate i.p. five days per week for three weeks, normal 0.22, gene deletion 0.12): 0.18
